Measurements reported in the CheMixHub viscosity set.
Where “and” joins values, the source holds several entries; their conditions need not be identical. Equal entries are not always repeated. ± gives the uncertainty stated by the source.

Experiment: xn = mol fraction of the nth substance listed

C1COCCO1 + Cc1ccccc1
101 kPa
Settings | viscosity
293.15 K, x1 = 0.6506 | 1.045 ± 0.022 mPa·s
303.15 K, x1 = 0.0992 | 0.556 ± 0.006 mPa·s
303.15 K, x1 = 0.1216 | 0.5749 ± 0.0042 mPa·s
303.15 K, x1 = 0.122 | 0.573 ± 0.01 mPa·s
303.15 K, x1 = 0.1993 | 0.591 ± 0.006 mPa·s
303.15 K, x1 = 0.2367 | 0.6251 ± 0.0045 mPa·s
303.15 K, x1 = 0.237 | 0.622 ± 0.011 mPa·s
303.15 K, x1 = 0.2925 | 0.628 ± 0.006 mPa·s
303.15 K, x1 = 0.347 | 0.675 ± 0.012 mPa·s
303.15 K, x1 = 0.3999 | 0.676 ± 0.007 mPa·s
303.15 K, x1 = 0.453 | 0.7299 ± 0.0051 mPa·s and 0.729 ± 0.012 mPa·s
303.15 K, x1 = 0.4961 | 0.723 ± 0.007 mPa·s
303.15 K, x1 = 0.554 | 0.779 ± 0.013 mPa·s
303.15 K, x1 = 0.5541 | 0.781 ± 0.0054 mPa·s
303.15 K, x1 = 0.5981 | 0.778 ± 0.008 mPa·s
303.15 K, x1 = 0.65 | 0.831 ± 0.014 mPa·s
303.15 K, x1 = 0.6504 | 0.8368 ± 0.0057 mPa·s
303.15 K, x1 = 0.6985 | 0.843 ± 0.008 mPa·s
303.15 K, x1 = 0.7438 | 0.8912 ± 0.0061 mPa·s
303.15 K, x1 = 0.744 | 0.882 ± 0.015 mPa·s
303.15 K, x1 = 0.8009 | 0.918 ± 0.009 mPa·s
303.15 K, x1 = 0.8327 | 0.9416 ± 0.0063 mPa·s
303.15 K, x1 = 0.833 | 0.939 ± 0.016 mPa·s
303.15 K, x1 = 0.8967 | 0.998 ± 0.01 mPa·s
303.15 K, x1 = 0.918 | 0.9965 ± 0.0067 mPa·s and 0.995 ± 0.016 mPa·s
308.15 K, x1 = 0.1 | 0.533 ± 0.007 mPa·s
308.15 K, x1 = 0.3 | 0.593 ± 0.008 mPa·s
308.15 K, x1 = 0.4 | 0.629 ± 0.008 mPa·s
308.15 K, x1 = 0.5 | 0.669 ± 0.009 mPa·s
308.15 K, x1 = 0.6 | 0.709 ± 0.009 mPa·s
308.15 K, x1 = 0.7 | 0.764 ± 0.01 mPa·s
308.15 K, x1 = 0.9 | 0.893 ± 0.011 mPa·s

COC(=O)CC(=O)OC + Cc1ccccc1
303.15 K, 101 kPa
Settings | viscosity [mPa·s]
x1 = 0.0934 | 0.5584 ± 0.0058
x1 = 0.1891 | 0.6061 ± 0.0062
x1 = 0.2852 | 0.6706 ± 0.0068
x1 = 0.3836 | 0.7507 ± 0.0075
x1 = 0.4821 | 0.8493 ± 0.0084
x1 = 0.5831 | 0.9701 ± 0.0096
x1 = 0.6852 | 1.122 ± 0.011
x1 = 0.7891 | 1.307 ± 0.013
x1 = 0.8932 | 1.522 ± 0.015

COc1ccccc1O + Cc1ccccc1
303.15 K, 101 kPa
Settings | viscosity [mPa·s]
x2 = 0.1 | 3.17 ± 0.08
x2 = 0.2 | 2.47 ± 0.07
x2 = 0.3 | 1.83 ± 0.05
x2 = 0.4 | 1.5 ± 0.04
x2 = 0.5 | 1.2 ± 0.03
x2 = 0.6 | 0.981 ± 0.026
x2 = 0.7 | 0.815 ± 0.022
x2 = 0.8 | 0.7 ± 0.019
x2 = 0.9 | 0.599 ± 0.016

BrCCBr + Cc1ccccc1C
101.33 kPa
Settings | viscosity [mPa·s]
298.15 K, x1 = 0.1292 | 0.7932 ± 0.0099
298.15 K, x1 = 0.261 | 0.8771 ± 0.011
298.15 K, x1 = 0.3856 | 0.9602 ± 0.012
298.15 K, x1 = 0.4919 | 1.032 ± 0.012
298.15 K, x1 = 0.585 | 1.098 ± 0.013
298.15 K, x1 = 0.6529 | 1.182 ± 0.014
298.15 K, x1 = 0.7597 | 1.263 ± 0.015
298.15 K, x1 = 0.8472 | 1.374 ± 0.016
298.15 K, x1 = 0.9267 | 1.487 ± 0.017
308.15 K, x1 = 0.1371 | 0.5822 ± 0.0073
308.15 K, x1 = 0.2566 | 0.6257 ± 0.0078
308.15 K, x1 = 0.3821 | 0.6992 ± 0.0086
308.15 K, x1 = 0.4845 | 0.7526 ± 0.0091
308.15 K, x1 = 0.5874 | 0.8292 ± 0.01
308.15 K, x1 = 0.6798 | 0.9216 ± 0.011
308.15 K, x1 = 0.7647 | 1.018 ± 0.012
308.15 K, x1 = 0.8499 | 1.154 ± 0.013
308.15 K, x1 = 0.9228 | 1.273 ± 0.015

Brc1ccccc1 + Cc1ccccc1C
101 kPa
Settings | viscosity [mPa·s]
293.15 K, x1 = 0.114 | 0.795 ± 0.014
293.15 K, x1 = 0.2198 | 0.827 ± 0.014
293.15 K, x1 = 0.3257 | 0.862 ± 0.015
293.15 K, x1 = 0.4383 | 0.893 ± 0.015
293.15 K, x1 = 0.542 | 0.931 ± 0.016
293.15 K, x1 = 0.6615 | 0.962 ± 0.016
293.15 K, x1 = 0.7764 | 1 ± 0.017
293.15 K, x1 = 0.882 | 1.035 ± 0.017
298.15 K, x1 = 0.1101 | 0.728 ± 0.013
298.15 K, x1 = 0.2223 | 0.765 ± 0.013
298.15 K, x1 = 0.3227 | 0.795 ± 0.014
298.15 K, x1 = 0.4226 | 0.826 ± 0.014
298.15 K, x1 = 0.5207 | 0.863 ± 0.015
298.15 K, x1 = 0.6643 | 0.9 ± 0.015
298.15 K, x1 = 0.772 | 0.938 ± 0.016
298.15 K, x1 = 0.8925 | 0.969 ± 0.016
303.15 K, x1 = 0.117 | 0.667 ± 0.012
303.15 K, x1 = 0.2219 | 0.701 ± 0.013
303.15 K, x1 = 0.3366 | 0.734 ± 0.013
303.15 K, x1 = 0.4539 | 0.77 ± 0.014
303.15 K, x1 = 0.5398 | 0.8 ± 0.014
303.15 K, x1 = 0.6572 | 0.834 ± 0.014
303.15 K, x1 = 0.7877 | 0.876 ± 0.015
303.15 K, x1 = 0.9122 | 0.91 ± 0.016
